Measured values published in patent US20200165194A1, “ADDITIVE COMPOSITION FOR CULTURE MEDIUM, ADDITIVE COMPOUND FOR CULTURE MEDIUM, AND METHOD FOR CULTURE OF CELLS OR TISSUE USING SAME” (NISSAN CHEMICAL CORPORATION, priority 2017, published 2020).
Where two headings read alike, the source gives them in different places.

Columns and labels:
[1] = test system: Cercopithecus aethiops kidney epithelium-derived cell line Vero; assay: Animal cell lines, 3D culture, ATP assay (Experimental Example 15); type: cell-based; settings: 4 days
Text: (§1) Various animal cell lines were precultured (single layer culture) as follows in respective media. Chinese hamster ovary-derived cell line CHO-K1 (manufactured by DS PHARMA BIO MEDICAL, 10% fetal bovine serum (FBS, manufactured by Corning)-containing Ham's F-12 medium (manufactured by Fujifilm Wako Pure Chemical Corporation)), Cercopithecus aethiops kidney epithelium-derived cell line Vero (purchased from JCRB cell bank, 5% FBS-containing Medium 199 medium (manufactured by Life Technologies)). The above-mentioned cells in the logarithmic growth phase were washed with PBS, a 0.25 w/v % trypsin-1 mmol/L EDTA (ethylenediaminetetraacetic acid) solution (manufactured by Fujifilm Wako Pure Chemical Corporation) was added, and adherent cells were detached by incubating at 37° C. for 3 min. Each medium was added and the mixture was centrifuged and resuspended in the same medium.
(§2) The aforementioned various animal cells were suspended in respective deacylated gellan gum-containing or not containing media (deacylated gellan gum concentration was 0.02 w/v % in Ham's F-12 medium, 0.015 w/v % in Medium 199 medium), and seeded in a 96 well low attachment U-bottom plate (manufactured by Corning, #4520, deacylated gellan gum-free medium), or a low attachment flat bottom plate (manufactured by Corning, #3474, deacylated gellan gum-containing medium) at a cell concentration of 700-2000 cells/90 μL/well (all 3D culture). […] The amount of each compound solution to be added was […]. As a control, a DMSO solution dissolved in a medium was added (DMSO final concentration 0.1%). […] When compared with the compound non-addition (control), one showing a value of not more than 119% as -, one showing a value of not less than 120% as ◯, and one showing a value of not less than 150% as ⊚ are shown in the twenty-third table and the twenty-fourth table.

[2] = test system: Chinese hamster ovary-derived cell line CHO-K1; assay: as above; type: cell-based; settings: CHO-K1, 4 days; for viability at 5 µM / viability at 10 µM: Cricetulus griseus, CHO-K1, 96 h, read-out: number of viable cells (RLU), relative value to control (100%)
Text: as §1, §2

[3] = test system: Mouse embryonic fibroblast C3H10T1/2; assay: Fibroblast strain C3H10T1/2, 3D culture, ATP assay (Experimental Example 11); type: cell-based; settings: for proliferation activity (in words): fibroblast under three-dimensional conditions
Experimental: Mouse embryonic fibroblast C3H10T1/2 (manufactured by DS PHARMA BIO MEDICAL) was cultured in a BME medium (manufactured by Thermo Fisher Scientific) containing 10 (v/v) % FBS (manufactured by Corning) and the L-glutamine-penicillin-streptomycin stabilizing solution (manufactured by Sigma-Aldrich). The above-mentioned cells in the logarithmic growth phase were washed with PBS, a 0.25 w/v % trypsin-1 mmol/L EDTA (ethylenediaminetetraacetic acid) solution (manufactured by Wako Pure Chemical Industries, Ltd.) was added, and the cells were detached by incubating at 37° C. for 3 min. Each medium was added, the mixture was centrifuged, and the supernatant was removed.
The aforementioned various cells were suspended in respective deacylated gellan gum-containing or not containing media (deacylated gellan gum concentration was 0.015 w/v %), and seeded in a 96 well low attachment U-bottom plate (manufactured by Corning, #4520, deacylated gellan gum-free medium) at a cell concentration of 700-2000 cells/90 μL/well (3D culture). […] The amount of each compound solution to be added was 10 μL/well. As a control, a DMSO solution dissolved in a medium was added (DMSO final concentration 0.1%). […] When compared with the compound no-addition (control), one showing a value of not more than 119% as -, one showing a value of not less than 120% as ◯, and one showing a value of not less than 150% as ⊚ are shown in the eighteenth table. Unperformed test is left blank.

[4] = test system: human ovarian cancer cell line SKOV3; assay: Action on SKOV3 cell-2: 3D (deacylated gellan gum) and 2D culture, EGF medium, ATP assay (Experimental Example 3); settings: for viability at 1 µM / viability at 5 µM / viability at 10 µM / viability at 20 µM: Homo sapiens, SK-OV-3, 96 h, 4 days, compound non-addition = 100%
Experimental: According to the method of patent document 1 (WO 2014/017513), a composition of McCoy's 5a medium (manufactured by Sigma-Aldrich) containing 0.015% (w/v) deacylated gellan gum (KELCOGEL CG-LA, manufactured by Sansho Co., Ltd.) and 15% (v/v) FBS, 30 ng/mL human EGF (manufactured by PEPROTECH) was prepared using FCeM-series Preparation Kit (manufactured by Wako Pure Chemical Industries, Ltd.). In a single layer culture, a non-addition medium composition not containing deacylated gellan gum was prepared. Then, human ovarian cancer cell line SKOV3 (manufactured by DS PHARMA BIO MEDICAL) was suspended in the above-mentioned medium composition added with deacylated gellan gum, and dispensed into the wells of a 384 well flat bottom Ultr-low Attachment surface microplate (manufactured by Corning Incorporated, #3827) at 1000 cells/36 μL/well (three-dimensional culture (3D)). In a single layer culture (2D), human ovarian cancer cell line SKOV3 was suspended in the above-mentioned medium composition not containing deacylated gellan gum, and dispensed into the wells of a 384 well flat bottom microplate (manufactured by Corning Incorporated, #3712) at 400 cells/36 μL per well. After dispensing, the compound to be used in the present invention dissolved in dimethyl sulfoxide (DMSO) was added by 4 μL each at a final concentration of 0, 1, 5, 10, 20 μM, and continuously cultured for 4 days. Each plate was cultured in a standing state in a CO2 incubator (37° C., 5% CO2) for 4 days. An ATP reagent (40 μL) (CellTiter-Glo (registered trade mark) Luminescent Cell Viability Assay, manufactured by Promega) was added to the culture medium on day 4, and the mixture was stirred by a plateshaker (manufactured by AS ONE Corporation, Micro plate mixer NS-P) at room temperature for 15 min. The luminescence intensity (RLU value) was measured by EnSpire (manufactured by Perkin Elmer) and the luminescence value of the medium alone was subtracted to measure the number of viable cells.

hiPS cell line 253G1 = assay: Human pluripotent stem cell (hiPS cell), EZSPHERE plate, ATP assay (Experimental Example 13); type: cell-based; settings: for relative value (%): hiPS 253G1, EZSPHERE plate, 5 μM, 3 days, RLU of DMSO addition = 100%; for proliferation activity (in words): human pluripotent stem cells under three-dimensional conditions
Experimental: hiPS cell line 253G1 (purchased from RIKEN) was cultured on a dish coated with vitronectin VTN-N (manufactured by Thermo Fisher Scientific) using mTeSR1 (registered trade mark) medium (manufactured by STEMCELL Technologies). The above-mentioned cells in the proliferation phase were washed with PBS (manufactured by Fujifilm Corporation Wako Pure Chemical Industries, Ltd.), TrypLE Select (registered trade mark) (manufactured by Thermo Fisher Scientific) was added and the mixture was incubated at 37° C. for 3 min to remove the detaching solution. The medium was added and the cells were detached by pipetting. Thereafter, the supernatant was removed by centrifugation.
The aforementioned cells were suspended in a medium containing 10 μM Y-27632 (manufactured by Fujifilm Corporation Wako Pure Chemical Industries, Ltd.) and seeded in a 96-well EZSPHERE plate (manufactured by AGC TECHNO GLASS CO., LTD., #4860-900) at a cell concentration of 10000 cells/200 μL/well. […] The amount of each compound solution to be added was 2 μL/well. As a control, a DMSO solution dissolved in a medium was added (DMSO final concentration 0.05%). The medium was exchanged by half the volume every day, and each compound solution was also added to make the compound concentration constant.

[5] = low attachment U-bottom plate, 10 μM
[6] = low attachment U-bottom plate, 5 μM
[7] = low attachment flat bottom plate (deacylated gellan gum-containing medium), 5 μM
[8] = low attachment flat bottom plate (deacylated gellan gum-containing medium), 10 μM
[9] = Mus musculus, C3H 10T1/2, 96 h, C3H10T1/2, low attachment U-bottom plate, 1 μM, 4 days, read-out: number of viable cells (RLU), relative value to control (100%)
[10] = read-out: relative value of RLU (number of viable cells), 2D single layer culture
[11] = read-out: relative value of RLU (number of viable cells), 3D culture (deacylated gellan gum)
[12] = single layer culture (2D) of SKOV3 cells
[13] = three-dimensional culture (3D) of SKOV3 cells

| Compound | number of viable cells (RLU), relative value to control (100%) [1, 5] | viability at 5 µM [2, 6] [%] | viability at 10 µM [2, 5] [%] | viability at 5 µM [2, 7] [%] | proliferation activity (in words) [3] | viability at 1 µM [4, 10] [%] | viability at 5 µM [4, 10] [%] | viability at 10 µM [4, 10] [%] | viability at 20 µM [4, 10] [%] | viability at 1 µM [4, 11] [%] | viability at 5 µM [4, 11] [%] | viability at 10 µM [4, 11] [%] | viability at 20 µM [4, 11] [%] | cell proliferation promoting effect (in words) [4, 12] | cell proliferation promoting effect (in words) [4, 13] | number of viable cells (RLU), relative value to control (100%) [1, 6] | number of viable cells (RLU), relative value to control (100%) [1, 7] | number of viable cells (RLU), relative value to control (100%) [1, 8] | relative value (%) (hiPS cell line 253G1) | proliferation activity (in words) (hiPS cell line 253G1) | other results |
| --- | --- | --- | --- | --- | --- | --- | --- | --- | --- | --- | --- | --- | --- | --- | --- | --- | --- | --- | --- | --- | --- |
| CC/C(=N\NC(=O)NCc1ccccc1)c1ccc(O)c(C)c1O [k-1:I-1] | ⊙ | < 119 | < 119 | < 119 | promoted proliferation activity in fibroblast | 99 | 98 | 94 | 92 | 106 | 111 | 123 | 141 | a favorable cell proliferation promoting effect was not observed | exhibited cell proliferation promoting effect at a wide concentration range |  |  |  |  |  | viability at 5 µM ([1]; Chlorocebus sabaeus, 96 h, low attachment U-bottom plate, 5 μM, read-out: number of viable cells (RLU), relative value to control (100%)): > 120%; viability at 5 µM ([1]; Chlorocebus sabaeus, 96 h, low attachment flat bottom plate (deacylated gellan gum-containing medium), 5 μM, read-out: number of viable cells (RLU), relative value to control (100%)): < 119%; viability at 10 µM ([1]; Chlorocebus sabaeus, 96 h, low attachment flat bottom plate (deacylated gellan gum-containing medium), 10 μM, read-out: number of viable cells (RLU), relative value to control (100%)): < 119%; viability at 10 µM [2, 8]: < 119%; viability at 1 µM [3, 9]: > 120%; viability at 5 µM ([3]; Mus musculus, C3H 10T1/2, 96 h, C3H10T1/2, low attachment U-bottom plate, 5 μM, 4 days, read-out: number of viable cells (RLU), relative value to control (100%)): > 120% |
| CC/C(=N\NC(=O)C(C)Nc1ccccc1)c1ccc(O)c(C)c1O (stereo not shown) [k-1:B-1] | ⊙ | < 119 | < 119 | 120 to 150 | promoted proliferation activity in fibroblast | 95 | 99 | 97 | 74 | 127 | 181 | 177 | 158 | a favorable cell proliferation promoting effect was not observed | exhibited cell proliferation promoting effect at a wide concentration range | ⊙ | ⊙ | ⊙ | 193 | promoted proliferation activity in human pluripotent stem cells | viability at 10 µM [2, 8]: < 119%; number of viable cells (RLU), relative value to control (100%) ([3]; C3H10T1/2, low attachment U-bottom plate, 1 μM, 4 days): ⊙; number of viable cells (RLU), relative value to control (100%) ([3]; C3H10T1/2, low attachment U-bottom plate, 5 μM, 4 days): ⊙ |
| CC/C(=N\NC(=O)CNc1cccc(O)c1)c1ccc(O)c(C)c1O [k-1:D-1] | ⊙ | < 119 | < 119 |  | promoted proliferation activity in fibroblast | 95 | 102 | 98 | 83 | 140 | 174 | 168 | 136 | a favorable cell proliferation promoting effect was not observed | exhibited cell proliferation promoting effect at a wide concentration range | ⊙ | ⊙ | ⊙ | 207 | promoted proliferation activity in human pluripotent stem cells | number of viable cells (RLU), relative value to control (100%) [2, 7]: ⊙; number of viable cells (RLU), relative value to control (100%) [2, 8]: ⊙; viability at 1 µM [3, 9]: > 120% |
| CCC(=NNC(=O)C(CC)Nc1ccccc1)c1ccc(O)c(C)c1O (stereo not shown) [k-1:H-7] | ⊙ |  |  |  |  |  |  |  |  |  |  |  |  |  |  | ⊙ | ⊙ | ⊙ | 194 | promoted proliferation activity in human pluripotent stem cells | number of viable cells (RLU), relative value to control (100%) [2, 7]: ◯ (one showing a value of not less than 120% as ◯) |
